Reference: ChEMBL document CHEMBL1201862, “PubChem BioAssay data set” (2004)
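A five-concentration, 48-hour dose response in 96-well plates underlies each endpoint, interpolated linearly between surrounding concentrations. Here, GI50 denotes the concentration required for 50% inhibition of growth.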 Activity calls are given as the source filed them. Rule as the data show it: active = GI50 up to about 1.1 µM and inactive = higher.

Tests used:
Assay in all cases: inhibition of tumour cell growth, NCI panel, 48 h
[1] = system: IGROV-1
[2] = system: MCF7
[3] = system: DMS-273
[4] = system: OVCAR-8
[5] = system: SNB-75
[6] = system: SNB-19
[7] = system: SK-MEL-28
[8] = system: 786-0
[9] = system: COLO 205
[10] = system: M19-MEL
[11] = system: KM-20L2
[12] = system: SW-620
[13] = system: HT-29
[14] = system: HCC 2998
[15] = system: U-251
[16] = system: LXFL 529
[17] = system: UO-31
[18] = system: SF-539
[19] = system: SK-MEL-5
[20] = system: UACC-257
[21] = system: EKVX
[22] = system: NCI-H226
[23] = system: SNB-78
[24] = system: Malme-3M
[25] = system: HOP-92
[26] = system: UACC-62
[27] = system: RXF 393
[28] = system: TK-10
[29] = system: A549
[30] = system: KM12
[31] = system: ACHN
[32] = system: SN12C
[33] = system: OVCAR-5
[34] = system: MOLT-4
[35] = system: HCT-15
[36] = system: SK-MEL-2
[37] = system: K562
[38] = system: SF-268
[39] = system: SF-295
[40] = system: RPMI-8226
[41] = system: SK-OV-3
[42] = system: NCI-H23
[43] = system: HCT-116
[44] = system: LOX IMVI
[45] = system: MDA-N
[46] = system: NCI-H460
[47] = system: BT-549
[48] = system: MDA-MB-435
[49] = system: OVCAR-3
[50] = system: SR
[51] = system: CAKI-1
[52] = system: HL-60
[53] = system: Hs-578T
[54] = system: NCI-H522
[55] = system: HOP-62
[56] = system: T47D
[57] = system: A498
[58] = system: CCRF-CEM
[59] = system: MDA-MB-231
[60] = system: M14
[61] = system: PC-3
[62] = system: NCI/ADR-RES
[63] = system: DU-145
[64] = system: OVCAR-4

## NC(=O)c1cn(C2OC(CO)C(O)C2O)c2ncnc(N)c12 (stereo unspecified)
[1]
  GI50: 0.0885 µM (active)
[2]
  GI50: 0.0902 µM (active)
[3]
  GI50: 0.0381 µM (active)
[4]
  GI50: 0.139 µM (active)
[5]
  GI50: 0.0422 µM (active)

## O=c1[nH]c(-c2ccc([N+](=O)[O-])cc2)nc2ccc(Cl)cc12
[6]
  GI50: 66.2 µM (inactive)
[7]
  GI50: > 100 µM (inactive)
[8]
  GI50: > 100 µM (inactive)
[1]
  GI50: 55.3 µM (inactive)
[9]
  GI50: > 100 µM (inactive)
[10]
  GI50: > 100 µM (inactive)
[11]
  GI50: > 100 µM (inactive)
[12]
  GI50: > 100 µM (inactive)
[13]
  GI50: > 100 µM (inactive)
[14]
  GI50: > 100 µM (inactive)
[15]
  GI50: 54.6 µM (inactive)
[16]
  GI50: 44.2 µM (inactive)
[17]
  GI50: > 100 µM (inactive)
[18]
  GI50: > 100 µM (inactive)
[19]
  GI50: > 100 µM (inactive)
[3]
  GI50: > 100 µM (inactive)
[20]
  GI50: > 100 µM (inactive)
[21]
  GI50: > 100 µM (inactive)
[22]
  GI50: > 10 µM (inactive)
[23]
  GI50: > 100 µM (inactive)
[24]
  GI50: > 100 µM (inactive)
[25]
  GI50: 26.8 µM (inactive)
[26]
  GI50: > 100 µM (inactive)
[27]
  GI50: 78.3 µM (inactive)
[28]
  GI50: 51.8 µM (inactive)
[29]
  GI50: > 100 µM (inactive)
[30]
  GI50: > 100 µM (inactive)
[31]
  GI50: > 100 µM (inactive)
[32]
  GI50: > 100 µM (inactive)
[33]
  GI50: > 100 µM (inactive)
[34]
  GI50: 23.6 µM (inactive)
[35]
  GI50: 94.4 µM
[4]
  GI50: > 100 µM (inactive)
[36]
  GI50: > 100 µM (inactive)
[37]
  GI50: 17.9 µM (inactive)
[38]
  GI50: > 100 µM (inactive)
[39]
  GI50: > 100 µM (inactive)
[5]
  GI50: 57.5 µM (inactive)
[40]
  GI50: 47.1 µM (inactive)
[41]
  GI50: 77.3 µM (inactive)
[42]
  GI50: > 100 µM (inactive)
[43]
  GI50: > 100 µM (inactive)

## CC(Oc1ccccc1)C(=O)NNC(=O)OC(C)(C)C (stereo unspecified)
[6]
  GI50: > 100 µM (inactive)
[7]
  GI50: > 100 µM (inactive)
[8]
  GI50: > 100 µM (inactive)
[1]
  GI50: > 100 µM (inactive)
[9]
  GI50: > 100 µM (inactive)
[44]
  GI50: > 100 µM (inactive)
[45]
  GI50: > 100 µM (inactive)
[46]
  GI50: > 100 µM (inactive)
[47]
  GI50: > 100 µM (inactive)
[48]
  GI50: > 100 µM (inactive)
[12]
  GI50: > 100 µM (inactive)
[49]
  GI50: > 100 µM (inactive)
[13]
  GI50: > 100 µM (inactive)
[14]
  GI50: > 100 µM (inactive)
[15]
  GI50: > 100 µM (inactive)
[17]
  GI50: > 100 µM (inactive)
[50]
  GI50: > 100 µM (inactive)
[2]
  GI50: > 100 µM (inactive)
[18]
  GI50: > 100 µM (inactive)
[51]
  GI50: > 100 µM (inactive)
[52]
  GI50: > 100 µM (inactive)
[19]
  GI50: > 100 µM (inactive)
[20]
  GI50: > 100 µM (inactive)
[21]
  GI50: > 100 µM (inactive)
[22]
  GI50: > 100 µM (inactive)
[24]
  GI50: > 100 µM (inactive)
[53]
  GI50: > 100 µM (inactive)
[25]
  GI50: > 100 µM (inactive)
[26]
  GI50: > 100 µM (inactive)
[54]
  GI50: > 100 µM (inactive)
[27]
  GI50: > 100 µM (inactive)
[28]
  GI50: > 100 µM (inactive)
[29]
  GI50: > 100 µM (inactive)
[30]
  GI50: > 100 µM (inactive)
[31]
  GI50: > 100 µM (inactive)
[32]
  GI50: > 100 µM (inactive)
[55]
  GI50: > 100 µM (inactive)
[33]
  GI50: > 100 µM (inactive)
[34]
  GI50: > 100 µM (inactive)
[56]
  GI50: > 100 µM (inactive)
[57]
  GI50: > 100 µM (inactive)
[58]
  GI50: > 100 µM (inactive)
[35]
  GI50: > 100 µM
[4]
  GI50: > 100 µM (inactive)
[36]
  GI50: > 100 µM (inactive)
[59]
  GI50: > 100 µM (inactive)
[60]
  GI50: > 100 µM (inactive)
[37]
  GI50: > 100 µM (inactive)
[38]
  GI50: > 100 µM (inactive)
[61]
  GI50: > 100 µM (inactive)
[62]
  GI50: > 100 µM (inactive)
[39]
  GI50: > 100 µM (inactive)
[63]
  GI50: > 100 µM (inactive)
[5]
  GI50: > 100 µM (inactive)
[40]
  GI50: > 100 µM (inactive)
[41]
  GI50: > 100 µM (inactive)
[42]
  GI50: > 100 µM (inactive)
[43]
  GI50: > 100 µM (inactive)
[64]
  GI50: > 100 µM (inactive)
